SMILES strings stand for the structures. Where a name gives a salt, the structure may show the parent alone.

Experiment [1] deals with SB.mhdgc-1. In words: area under the dose-response curve of % viability (trapezoidal, 11 doses) (% viability x log10 concentration); higher = less cytotoxic. The settings on record: SB.mhdgc-1 (hereditary c.1380delA CDH1 gastric cancer). The method in brief:
(§1)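 A pintool delivered 23 nL of compound in DMSO to 1536-well plates holding 500 hereditary or sporadic patient-derived gastric cancer cells in 5 μL medium per well, at 11 concentrations in threefold steps. Following 48 h of exposure, cells were treated with CellTiter-Glo for 30 min at room temperature, and plates were read for luminescence on a ViewLux. The reported measure is viability normalised to DMSO, either at the top concentration or as trapezoidal area under the curve.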

Experiment [2] concerns SB.msgc-1. Described as above. As to conditions: SB.msgc-1 (sporadic gastric cancer). The gist of the method:
as §1

The test system of experiment [3] is SB.mhdgc-1. In words: viability at highest tested concentration (MAXR) relative to DMSO; higher = less cytotoxic. The settings on record: SB.mhdgc-1 (hereditary c.1380delA CDH1 gastric cancer). The gist of the method: as §1
Experiment [4] concerns SB.msgc-1. Described as above. The settings on record: SB.msgc-1 (sporadic gastric cancer). The method in brief: as §1

A word on the viability: it is the share of living cells, or the viability signal relative to a control. Regarding `NC(=O)c1cccc(-c2cccc(OC(=O)NC3CCCCC3)c2)c1` [KDS-4103] (top concentration 46.0829 µM), the “area under the dose-response curve” value turned out to be 463 in the experiment with SB.mhdgc-1 [1] and 544 with SB.msgc-1 [2]. For the same compound, the viability in the experiment with SB.mhdgc-1 [3] was determined as 51.6%; with SB.msgc-1 [4], 73.9%.
`N#CCNC(=O)c1ccc(-c2ccnc(Nc3ccc(N4CCOCC4)cc3)n2)cc1` [CYT387] (top concentration 46.0829 µM): the “area under the dose-response curve” value with SB.mhdgc-1 [1] was determined as 534; in the experiment on SB.msgc-1 [2], 474. Also, the viability in the experiment on SB.mhdgc-1 [3] was 47.3%; in the experiment on SB.msgc-1 [4], 26.9%.
For `S=P(N1CC1)(N1CC1)N1CC1` [ThioTEPA] (top concentration 46.0829 µM) the same measures were 519, 514, 47.4% and 75%.
For `C\C1=C\N([C@H]2C[C@H](N=[N+]=[N-])[C@@H](CO)O2)C(=O)NC1=O` [Zidovudine] (top concentration 46.0829 µM) the same measures were 448, 575, 2.86% and 15.7%.
Turning to `N[C@@H](CC(=O)N1CCn2c(nnc2C(F)(F)F)C1)Cc1cc(F)c(F)cc1F` [Sitagliptin] (top concentration 46.0829 µM), the “area under the dose-response curve” value in the experiment on SB.mhdgc-1 [1] was found to be 587; in the experiment with SB.msgc-1 [2], 527. The values for the viability with SB.mhdgc-1 [3] and with SB.msgc-1 [4] were 92.7% and 99.3%, respectively.
For `CCCCCCCCc1ccc(CCC(N)(CO)CO)cc1` [Fingolimod hydrochloride] (top concentration 46.0829 µM) the same measures were 469, 489, 1.7% and 0.854%.
For `CCn1c(=O)c2c(nc(/C=C/c3ccc(OC)c(OC)c3)n2C)n(CC)c1=O` [Istradefylline] (top concentration 46.0829 µM) the same measures were 543, 546, 64.2% and 67.9%.
On to `Nc1ncnc2c1c(-c1cccc(OCc3ccccc3)c1)cn2C1CC(CN2CCC2)C1` (configuration not stated) [NVP-AEW541] (top concentration 46.0829 µM), for which the “area under the dose-response curve” value was 482 in the experiment on SB.mhdgc-1 [1] and 484 in the experiment on SB.msgc-1 [2]. Moreover, the results for the viability in the experiment with SB.mhdgc-1 [3] and in the experiment with SB.msgc-1 [4] were 44.9% and 55.9%, respectively.
Take `CNC(=O)CN1CCC(Oc2cc3c(Nc4cccc(Cl)c4F)ncnc3cc2OC)CC1` [Sapitinib] (top concentration 46.0829 µM): the figures for the “area under the dose-response curve” value with SB.mhdgc-1 [1] and in the experiment with SB.msgc-1 [2] were 315 and 224, respectively. The viability in the experiment with SB.mhdgc-1 [3] turned out to be 53.9%; with SB.msgc-1 [4], 28.9%.
For `CCN(CC)CCNC(=O)c1c(C)[nH]c(/C=C2\C(=O)Nc3ccc(F)cc32)c1C` [Sunitinib malate] (top concentration 92.1659 µM), the “area under the dose-response curve” value was determined as 382 in the experiment on SB.mhdgc-1 [1] and 458 in the experiment with SB.msgc-1 [2]. Further, the viability with SB.mhdgc-1 [3] turned out to be 1.85%; in the experiment with SB.msgc-1 [4] it was 3.83%.
For `NC1=NC=C(C=C1)C2=CC=C3N=CC\4=C(N(C(=O)\C=C4)C5=CC(=CC=C5)C(F)(F)F)C3=C2` [Torin-2] (top concentration 46.0829 µM) the same measures were 209, 315, 7.84% and 21.2%.
For `COC1=CC=CC(=C1N)\C2=C\C(=O)C3=C(O2)C=CC=C3` (top concentration 46.0829 µM) the same measures were 432, 495, 42% and 59.1%.
The corresponding values for `O=C(NOCC1CC1)c1ccc(F)c(F)c1Nc1ccc(I)cc1Cl` (top concentration 46.0829 µM) are 380, 509, 5.2% and 31.4%.
For `CC[S+](=O)([O-])c1cccc(-c2cc(C(=O)NC3CCN(C)CC3)c(C)c3[nH]c4ncc(C)cc4c23)c1` [TAK-901] (top concentration 46.0829 µM), the figures for the “area under the dose-response curve” value in the experiment with SB.mhdgc-1 [1] and in the experiment on SB.msgc-1 [2] were 383 and 482, respectively. Further, the viability was found to be 44.2% in the experiment on SB.mhdgc-1 [3] and 49.1% in the experiment on SB.msgc-1 [4].
As to `COc1cc2nc(-c3ccc(N4CCN(C)CC4)cc3)nc(NCCN3CCOCC3)c2cc1OC` (top concentration 46.0829 µM), the “area under the dose-response curve” value was determined as 397 with SB.mhdgc-1 [1] and 320 in the experiment with SB.msgc-1 [2]. The figures for the viability in the experiment with SB.mhdgc-1 [3] and with SB.msgc-1 [4] were 1.59% and 2.22%, respectively.
With `C[S+](=O)([O-])OCCCCO[S+](C)(=O)[O-]` [Busulfan] (top concentration 46.0829 µM), the “area under the dose-response curve” value stood at 501 in the experiment with SB.mhdgc-1 [1] and 510 in the experiment with SB.msgc-1 [2]. In addition, the viability with SB.mhdgc-1 [3] worked out at 23.2%; in the experiment on SB.msgc-1 [4], 52.1%.
For `COc1cc2c(cc1O)CCC1C2CC[C@@]2(C)C1CC[C@@H]2O` (some centres not stated) [2-Methoxyestradiol] (top concentration 46.0829 µM) the same measures were 526, 538, 82.1% and 87%.
The corresponding values for `CCCC(CCC)C(=O)[O-]` [Valproic acid sodium salt] (top concentration 46.0829 µM) are 425, 505, 47.7% and 46.3%.
For `Nc1nc(N)c2nc(CNc3ccc(C(=O)NC(CCC(=O)O)C(=O)O)cc3)cnc2n1` (configuration not stated) [Aminopterin] (top concentration 46.0829 µM) the same measures were 409, 285, 49.4% and 36.4%.
Turning to `CNCc1ccc(-c2[nH]c3cc(F)cc4c3c2CCNC4=O)cc1` [Rucaparib] (top concentration 46.0829 µM), the “area under the dose-response curve” value with SB.mhdgc-1 [1] was 475; in the experiment with SB.msgc-1 [2] it was 507. In addition, the viability amounted to 50.4% in the experiment with SB.mhdgc-1 [3] and 90.4% in the experiment with SB.msgc-1 [4].
Take `OC1CCC(Nc2ncc3nc(Nc4c(F)cc(F)cc4F)n([C@@H]4CCOC4)c3n2)CC1` (some centres not stated) (top concentration 46.0829 µM): the “area under the dose-response curve” value in the experiment on SB.mhdgc-1 [1] was 505; in the experiment on SB.msgc-1 [2], 502. For the same compound, the viability amounted to 92.7% in the experiment on SB.mhdgc-1 [3] and 97% with SB.msgc-1 [4].
As to `CC(C)NCC(O)c1ccc(O)c(O)c1` (configuration not stated) [Isoprenaline hydrochloride] (top concentration 46.0829 µM), the “area under the dose-response curve” value with SB.mhdgc-1 [1] worked out at 510; in the experiment on SB.msgc-1 [2], 537. In addition, the values for the viability in the experiment with SB.mhdgc-1 [3] and with SB.msgc-1 [4] were 53.5% and 9.29%, respectively.
As for `Cc1ccc(C(=O)Nc2ccc([S+](=O)([O-])O)c3cc([S+](=O)([O-])O)cc([S+](=O)([O-])O)c23)cc1NC(=O)c1cccc(NC(=O)Nc2cccc(C(=O)Nc3cc(C(=O)Nc4ccc([S+](=O)([O-])O)c5cc([S+](=O)([O-])O)cc([S+](=O)([O-])O)c45)ccc3C)c2)c1` [Suramin sodium] (top concentration 46.0829 µM), the “area under the dose-response curve” value in the experiment with SB.mhdgc-1 [1] was determined as 480; in the experiment with SB.msgc-1 [2], 474. Further, the viability with SB.mhdgc-1 [3] was found to be 89.1%; in the experiment on SB.msgc-1 [4], 70%.

The values above are taken from the supplement of paper PMC5412046.
